Drawing on EP2281824A1, “Furan-imidazolone derivatives, for the treatment of cognitive, neurodegenerative or neuronal diseases or disorders” (NOSCIRA, S.A., priority 2009, dated 2011), this text covers IC50 for 18 compounds.

In assay [1] the target is T1, BACE-1 β-Secretase recombinant human enzyme (Homo sapiens, UniProt P56817).
T1 construct: purchased R&D Systems
Kind of assay: BACE assay (time-resolved fluorescence, TruPoint BACE1 substrate). It is filed as biochemical. As to conditions: 200 nM peptide substrate, 8 nM enzyme, sodium acetate pH 4.5, 1 h at room temperature; read-out: IC50 Inhibition of BACE Activity. On the procedure:
This assay is based on time-resolved fluorescence ("TRF") technology, using a. BACE peptide substrate containing a fluorescent europium chelate coupled to one end and a quencher coupled to the other end. […] The reagents which are used in this assay are BACE-1 β-Secretase recombinant human enzyme (R&D Systems, Minneapolis, MN), TruPoint™ BACE1 substrate (Perkin Elmer Waltham, MA), sodium acetate, CHAPS and EDTA (Sigma Aldrich, St Louis, MO). The assay is carried out in a 96-well microplate in a final volume of 100 µl using 200 nM peptide substrate and 8 nM enzyme in 50 mM sodium acetate pH 4.5 with 1 mM EDTA and 0.2% (w/v) CHAPS. The plates are incubated for 1 h in the dark at room temperature and then read in a fluorimeter plate reader provided with time-resolved fluorescence capabilities (PolarStar Optima™, BMG-Labtech, Offenburg, Germany) using 337 nm as excitation wavelength and 615 nm as the emission wavelength. Compounds are tested in duplicate using a concentration range extending from 5 nM to 100 µM, using 10 µM H-4848 (commercial BACE inhibitor, BACHEM, Bubendorf, Switzerland) as control.
The compounds of formula (I) of the present invention where submitted to the above indicated assay, in order to determine their BACE activity inhibition. The results, indicated in IC50 format, are indicated below in Table I. IC50 is the half maximal inhibitory concentration, which is a measure of the effectiveness of a compound in inhibiting biological or biochemical function. This quantitative measure indicates the concentration of a particular substance is needed to inhibit a given biological process by half. In other words, it is the half maximal (50%) inhibitory concentration (IC) of a substance.

The subject of the next assay is Aβ secretion. In words: Inhibition of beta-amyloid secretion (Aβ1-40 ELISA of cell culture supernatants). As to conditions: CHO-7W; CHO7w cell line stably transfected with human BACE, 48 hours, Aβ (1-40) in supernatants. It is filed as cell-based. The method, then:
To quantify human Aβ1-40 an ELISA-based commercial kit was used (Immunoassay Kit Human β Amyloid 1-40, The Genetics Company, Schlieren, Switzerland). Aβ (1-40) peptide was quantified from cell culture supernatants using a CHO7w cell line stably transfected with human BACE. β-Secretase inhibitor IV (Calbiochem, San Diego, CA), was used as Aβ secretion reduction positive control in all the Aβ secretion studies. Cells were grown in DMEM supplemented with 2% Foetal bovine serum, 1% penicillin-streptomycin, 1% L-glutamine and 200 µg/ml G418. Cells were seeded in 96-well culture microplates at 5000 cells/well and treated with 10 µM β secretase inhibitor IV or compounds for 48 hours. Then cell culture supernatants were collected and analyzed according to the kit manufacturer's instructions. At 10 µM β-secretase inhibitor IV the inhibition of Aβ secretion inhibition is usually between 70 and 100 %.
Some of the compounds of formula (I) of the present invention where submitted to the above indicated assay, in order to determine their capacity of inhibiting Aβ secretion. The results, indicated in IC50 format, are indicated below in Table I. Table I
(In an ELISA, binding on a coated surface is turned into a signal by an enzyme label.)

Each structure is given as a SMILES string.

T1 sequence (P56817 46-501): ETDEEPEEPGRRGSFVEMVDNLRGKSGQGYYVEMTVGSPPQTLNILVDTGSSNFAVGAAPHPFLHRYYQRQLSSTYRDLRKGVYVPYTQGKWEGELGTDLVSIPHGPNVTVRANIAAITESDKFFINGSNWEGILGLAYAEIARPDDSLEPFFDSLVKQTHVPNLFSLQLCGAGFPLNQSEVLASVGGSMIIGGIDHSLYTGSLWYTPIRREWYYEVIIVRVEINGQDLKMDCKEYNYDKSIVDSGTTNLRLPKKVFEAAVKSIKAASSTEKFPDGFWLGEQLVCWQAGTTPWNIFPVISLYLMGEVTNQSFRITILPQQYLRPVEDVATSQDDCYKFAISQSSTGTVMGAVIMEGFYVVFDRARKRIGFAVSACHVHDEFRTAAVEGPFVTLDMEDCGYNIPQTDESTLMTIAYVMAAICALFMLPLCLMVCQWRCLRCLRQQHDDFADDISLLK

Consider `Cc1noc(C)c1-c1ccc(C=C2N=C(N)NC2=O)o1` [Compound 7, 2-Amino-5-[5-(3,5-dimethyl-isoxazol-4-yl)-furan-2-ylmethylene]-3,5-dihydro-imidazol-4-one], for which the IC50 in assay [1] turned out to be 390 nM.

As to `COc1ccc(-c2ccc(C=C3N=C(N)N(C)C3=O)o2)cc1Cl` [Compound 2, 2-amino-S-[S-(3-chloro-4-methoxy-phenyl)-furan-2-ylmethylene]-3-methyl-3,5-dihydro-imidazol-4-one], the IC50 in assay [1] was found to be 326 nM.

Take `Cc1noc(C)c1-c1ccc(C=C2N=C(N)N(C)C2=O)o1` [Compound 16, 2-amino-5-[5-(3,5-dimethyl-isoxazol-4-yl)-furan-2-ylmethylene]-3-methyl-3,5-dihydro-imidazol-4-one]: the 50% inhibitory concentration (IC50) in assay [1] turned out to be 1230 nM.

`NC1=NC(=Cc2ccc(-c3ccc4c(c3)OCO4)o2)C(=O)N1` [Compound 4, 2-amino-5-(5-benzo[1,3]dioxol-5-yl-furan-2-ylmethylene)-3,5-dihydro-imidazol-4-one]: the IC50 in assay [1] was found to be 250 nM; with Aβ secretion, 30000 nM.

In the case of `COCCN1C(=O)C(=Cc2ccc(-c3ccc(OC)c(Cl)c3)o2)N=C1N` [Compound 13, 2-Amino-5-[5-(3-chloro-4-methoxy-phenyl)-furan-2-ylmethylene]-3-(2-methoxy-ethyl)-3,5-dihydro-imidazol-4-one], in assay [1], the IC50 was 810 nM.

Regarding `COc1ccc(C#N)cc1-c1ccc(C=C2N=C(N)N(C)C2=O)o1` [Compound 11, 3-[5-(2-Amino-1-methyl-5-oxo-1,5-dihydro-imidazol-4-ylidenemethyl)-furan-2-yl]-4-methoxy-benzonitrile], in assay [1], the IC50 was found to be 220 nM.

For `CN1C(=O)C(=Cc2ccc(-c3ccc([N+](=O)[O-])cc3)o2)N=C1N` [Compound 18, Acetate 1-methyl-4-[5-(4-nitro-phenyl)-furan-2-ylmethylene]-5-oxo-4,5-dihydro-1H-imidazol-2-yl-ammonium], in assay [1], the 50% inhibitory concentration (IC50) was 400 nM.

As to `NC1=NC(=Cc2ccc(-c3ccc([N+](=O)[O-])cc3)o2)C(=O)N1` [Compound 1, 2-amino-5-[5-(4-nitro-phenyl)-furan-2-ylmethylene]-3,5 dihydro-imidazol-4-one], the IC50 in assay [1] came out at 110 nM.

On to `COc1ncccc1-c1ccc(C=C2N=C(N)NC2=O)o1` [Compound 5, 2-amino-5-[5-(2-methoxy-pyridin-3-yl)-furan-2-ylmethylene]-3,5-dihydro-imidazol-4-one], for which the IC50 came out at 360 nM in assay [1] and 40000 nM in the assay on Aβ secretion.

On to `COc1ccc(-c2ccc(C=C3N=C(N)N(C)C3=O)o2)c(OC)c1` [Compound 15, 2-Amino-5-[5-(2,4-dimethoxy-phenyl)-furan-2-ylmethylene]-3-methyl-3,5-dihydro-imidazol-4-one], for which the IC50 in assay [1] amounted to 346 nM.

As to `COC(=O)c1ccc(OC)c(-c2ccc(C=C3N=C(N)NC3=O)o2)c1` [Compound 9, 3-[5-(2-amino-5-oxo-1,5-dihydro-imidazol-4-ylidenemethyl)-furan-2-yl]-4-methoxy-benzoic acid methyl ester], the IC50 in assay [1] was 711 nM; with Aβ secretion, 45000 nM.

For `COc1ccc(-c2ccc(C=C3N=C(N)NC3=O)o2)cc1` [Compound 17, 2-Amino-5-[5-(4-methoxy-phenyl)-furan-2-ylmethylene]-3,5-dihydro-imidazol-4-one], the IC50 was found to be 422 nM in assay [1] and 35000 nM in the assay with Aβ secretion.

In the case of `COc1ncc(-c2ccc(C=C3N=C(N)NC3=O)o2)c(OC)n1` [Compound 6, 2-amino-5-[5-(2,4-dimethoxy-pyrimidin-5-yl)-furan-2-ylmethylene]-3,5-dihydro-imidazol-4-one], the IC50 in assay [1] was determined as 1320 nM.

Regarding `COc1ccc(-c2ccc(C=C3N=C(N)N(Cc4ccccc4)C3=O)o2)cc1Cl` [Compound 12, 2-Amino-3-benzyl-5-[5-(3-chloro-4-methoxy-phenyl)-furan-2-ylmethylene]-3,5-dihydro-imidazol-4-one], the concentration for half-maximal inhibition (IC50) in assay [1] was determined as 1230 nM.

For `COc1ncccc1-c1ccc(C=C2N=C(N)N(C)C2=O)o1` [Compound 14, 2-Amino-5-[5-(2-methoxy-pyridin-3-yl)-furan-2-ylmethylene]-3-methyl-3,5-dihydro-imidazol-4-one], the IC50 in assay [1] amounted to 540 nM.

`COc1ccc(-c2ccc(C=C3N=C(N)NC3=O)o2)cc1Cl` [Compound 10, 2-Amino-5-[5-(3-chloro-4-methoxy-phenyl)-furan-2-ylmethylene]-3,5-dihydro-imidazol-4-one]: the half-maximal inhibitory concentration (IC50) in assay [1] was determined as 319 nM.

With `NC1=NC(=Cc2ccc(-c3ncccn3)o2)C(=O)N1` [Compound 8, 2-amino-5-(5-pyrimidin-2-yl-furan-2-ylmethylene)-3,5-dihydro-imidazol-4-one], the IC50 in assay [1] came out at 1300 nM.

Consider `COc1ccc(-c2ccc(C=C3N=C(N)NC3=O)o2)c(OC)c1` [Compound 3, 2-amino-5-[5-(2,4-dimethoxy-phenyl)-furan-2-ylmethylene]-3,5-dihydro-imidazol-4-one], for which, in assay [1], the IC50 worked out at 369 nM.

One may read the IC50 as the midpoint of a concentration-inhibition curve.
